Data: patent publication US7144982B2, “Polypeptides with therapeutic activity and methods of use” (University of Minnesota, priority 2000, dated 2006)
Like-named read-outs stand apart in the source and are kept apart here. Ends that are not written are not given here.

Key:
Human red blood cells = assay type: cell-based; settings: for hemolysis: red cells of human, 1 h
Method: Human red blood cells were washed three times using phosphate buffered saline (PBS: 35 mM phosphate buffer, 0.15 M NaCl, pH 7.0) prior to performing the assay. One hundred μL of human red blood cells suspended in 0.4% (v/v) PBS was placed in eppendorf tubes, and 100 μL of serially diluted peptides in PBS was added (peptide concentration ranged from 1 μM to 100 μM). Tubes were incubated for 1 hr at 37° C. and centrifuged at 1000 g for 5 min. One hundred μL aliquots of the supernatant was then transferred to eppendorf tubes, and hemolysis was measured by absorbance at 414 nm. Zero percentage hemolysis and 100% hemolysis were determined in PBS and in 1% Triton-X 100, respectively. The hemolysis percentage was calculated using the following formula: % hemolysis=[(A414 in the peptide solution−A414 in PBS)/(A414 in 1% Triton-X 100−A414 in PBS)]×100.

P. aeruginosa = settings: against P. aeruginosa; Lee et al. 1989; cited from earlier work
E. coli J5 = assay: Bactericidal assay, rough strain E. coli J5; assay type: cell-based; settings: for LD50 bactericidal activity, Gram-neg. rough J5: Table 4, SC-4 variants; for LD50 bactericidal activity, Gram-neg. rough J5 / LD50 bactericidal activity, Gram neg. rough J5: SD about ±30%; for LD50 bactericidal activity, Gram neg. rough J5: Table 1, E. coli J5
From the text: (§1) Pseudomonas aeruginosa type 1 is a clinical, smooth strain isolate serotyped by using the scheme of Homma, Japan. J. Exp. Med. 46, 329–336 (1976) and maintained in the lab by monthly transfer on blood agar plates. E. coli J96, IA2, and H5 are smooth strain, uropathogenic clinical isolates kindly maintained and provided by J. R. Johnson and described in Johnson et al., J. Infect. Disease 173, 920–926 (1996) for J96 and IA2 and in Johnson et al., J. Infect. Disease 173, 746–749 (1996) for H5. J5 is an E. coli rough strain initially referenced by G. R. Siber and discussed in Warren et al., Infect. Immunity 55, 1668–1673 (1987) and is analogous to the smooth strain E. coli 0111:B4 used in the BioWhittaker LAL endotoxin detection and quantitation kit described below. Gram-positive MN8 and MNHO are two patient isolates of Staphylococcus aureus, which were kindly provided by P. M. Schlievert and described in Bohach et al., Rev. Infect. Diseases 11, 75–82 (1989) for MNHO and in Schlievert et al., J. Infect. Diseases 147, 236–242 (1983) for MN8. All cultures are maintained on nutrient agar plates.
(§2) Pyrogen-free solutions were used throughout the assay. Log phase bacteria were obtained by transferring an overnight culture or scraping crystals off −85° C. glycerol stocks of overnight cultures. Bacteria were washed and resuspended in 0.9% sodium chloride with adjustment to an optical density at 650 nm which yields 3×10^8 CFU/ml. Bacteria were then diluted 1:10 in 0.08 M citrate phosphate buffer, pH 7.0 (prepared by mixing 0.08 M citric acid with 0.08 M dibasic sodium phosphate). Bacteria (0.15 ml) were incubated with peptide in a final volume of 1.0 ml of buffer. The assay was done in 17×100 polypropylene tubes in a reciprocal water bath shaker at 37° C. for 30 minutes. Following this 30 minute (min) incubation, 10-fold dilutions were made in 0.9% sodium chloride. Dilutions were done to 10^−4 and 20 μl of each dilution was streaked across an agar plate. Gram-positive organisms were plated on nutrient agar plates containing 2% agar and Gram-negative organisms were plated on MacConkey agar (2%). Plates were incubated overnight at 37° C. and counted the next morning. The dilution containing 10–100 bacteria was counted and the number multiplied by 50 to adjust all counts to the number bacteria killed per milliliter. Peptide concentrations were converted to logarithm base ten and graphed. Bactericidal activity was determined by dose response where LD50 values were determined by best fits of a sigmoidal curve to the dose response data.

E. coli J96 = assay type: cell-based; settings: for LD50 bactericidal activity, Gram neg. smooth J96: Table 1, E. coli J96, SD about ±30%
From the text: as §1
as §2, with “The assay was done in 17×100 polypropylene tubes in a reciprocal water bath shaker at 37° C. for 30 minutes. Following this 30 minute (min) incubation, 10-fold dilutions were made in 0.9% sodium chloride. Dilutions were done to 10^−4 and 20 μl of each dilution was streaked across an agar plate. Gram-positive organisms were plated on nutrient agar plates containing 2% agar and Gram-negative organisms were plated on MacConkey agar (2%).” left out, “Peptide concentrations were converted to logarithm base ten and graphed.” left out

[1] = test system: Pseudomonas aeruginosa type 1; assay: Bactericidal assay, P. aeruginosa (P.a.); assay type: cell-based; settings: SD about ±30%; for LD50 bactericidal activity, Gram-neg. smooth P.a.: Table 4, SC-4 variants; for LD50 bactericidal activity, Gram neg. smooth P.a.: Table 1, P. aeruginosa
From the text: as §1, §2

[2] = test system: Staphylococcus aureus MNHO; assay: Bactericidal assay, Gram-positive S. aureus MNHO; assay type: cell-based; settings: SD about ±30%
From the text: as §1, §2

E. coli 055:B5 LPS = assay: Limulus amoebocyte lysate assay for LPS neutralization; assay type: biochemical; settings: for drop in LPS neutralizing activity relative to SC-4: SC-3: relative to either SC-4 or SC-5
From the text: The ability of synthetic peptides to neutralize endotoxin was detected using the chromogenic QCL-1000 kit from BioWhittaker, Inc. (Walkersville, Md.) as described in their protocol. This method is quantitative for Gram-negative bacterial endotoxin (lipopolysaccharide, LPS). In the Limulus amebocyte lysate (LAL) assay, peptides that are active inhibit the LPS-mediated activation of a proenzyme (Young et al., J. Clin. Invest. 51, 1790–1797 (1972)) whose active form would release p-nitroaniline (pNA) from a colorless synthetic substrate (Ac-Ile-Glu-Ala-Arg-pNA), producing a yellow color (pNA) whose absorption is monitored spectrophotometrically at 405–410 nm. The initial rate of enzyme activation is proportional to the concentration of endotoxin present. The concentration of peptide required to bind to LPS and therefore to inhibit the Limulus amoebocyte lysate driven by 0.04 unit (or 0.01 ng) of E. coli 055:B5 LPS (from SIGMA) was determined by dose response.

E. coli H5 = assay: Bactericidal assay, smooth strain E. coli H5; assay type: cell-based; settings: Table 1, SD about ±30%
From the text: as §1, with “Diseases 11, 75–82 (1989) for MNHO and in Schlievert et al., J. Infect. Diseases 147, 236–242 (1983) for MN8. All cultures are maintained on nutrient agar plates.” left out
(§3) Pyrogen-free solutions were used throughout the assay. […] Plates were incubated overnight at 37° C. and counted the next morning. The dilution containing 10–100 bacteria was counted and the number multiplied by 50 to adjust all counts to the number bacteria killed per milliliter. […] Bactericidal activity was determined by dose response where LD50 values were determined by best fits of a sigmoidal curve to the dose response data.

E. coli IA2 = assay: Bactericidal assay, smooth strain E. coli IA2; assay type: cell-based; settings: Table 1, SD about ±30%
From the text: as §1, with “Diseases 11, 75–82 (1989) for MNHO and in Schlievert et al., J. Infect. Diseases 147, 236–242 (1983) for MN8. All cultures are maintained on nutrient agar plates.” left out
as §3

[3] = test system: Staphylococcus aureus MN8; assay: Bactericidal assay, Gram-positive S. aureus MN8; assay type: cell-based; settings: Table 1, SD about ±30%
From the text: as §1, with “Diseases 11, 75–82 (1989) for MNHO and in Schlievert et al., J. Infect. Diseases 147, 236–242 (1983) for MN8. All cultures are maintained on nutrient agar plates.” left out
as §3

bacteria = settings: cited from earlier work
[4] = Table 4, SC-4 variants, SD about ±30%, read-out: LPS neutralization IC50
[5] = read-out: IC50 LPS neutralization
[6] = Table 1, SD about ±30%, read-out: LPS effect, IC50 for neutralization of LPS

Substance	hemolysis (Human red blood cells; 1e-4 M)	LD50 bactericidal activity, Gram-neg. rough J5 (E. coli J5)	LD50 bactericidal activity, Gram-neg. smooth P.a. [1]	LD50 bactericidal activity, Gram-positive MNHO ([2]; Table 4, SC-4 variants)	IC50 (E. coli 055:B5 LPS; [4])	further results
LKWKIIVKLNDG-NH2 [SC-6, LKWKIIVKLNDG]	~15%					
cecropin P1						lethal concentration (P. aeruginosa): 6 µM
KLFKRHLKWKII-NH2 [SC-4, KLFKRHLKWKII]	~10%					LD50 (E. coli J5; against J5 (Gram-negative bacteria)): 3 nM; LD50 (E. coli J96; J96): 250 nM; concentration below which not hemolytic (Human red blood cells): ≥ 10^−4 M
KRHLKWKIIVKL-NH2 [SC-5, KRHLKWKIIVKL]	around 70%					hemolysis (Human red blood cells; 1e-6 M): 15-30%
K L F K R H L X W K I I-NH2 [SC-406]		0.005 10^−6 M	0.05 10^−6 M	2 10^−6 M	3 µM	LPS neutralization in words (E. coli 055:B5 LPS): essentially no affect
QMKLFKRHLKWK [SC-401, Q M K L F K R H L K W K-NH2]		0.004 10^−6 M	0.06 10^−6 M	XXX (XXX means not active at concentrations below 1 × 10^−5 M.)		drop in LPS neutralizing activity relative to SC-3 (E. coli 055:B5 LPS): 5 fold; drop in LPS neutralizing activity relative to SC-4 (E. coli 055:B5 LPS): 60 fold; IC50 (E. coli 055:B5 LPS; [5]): 126 µM
ANIKLSVQMKLFKRHLKWKIIVKLNDGRELSLD-NH2 [βpep-25, reference compound]	about 5%					
SIQKLNVSMKLFRKQAKWKIIVKLNDGRELSLD [βpep-19, reference compound]						LD50 bactericidal activity, Gram neg. rough J5 (E. coli J5): 0.01 10^−6 M; LD50 bactericidal activity, Gram neg. smooth P.a. [1]: 0.03 10^−6 M; LD50 bactericidal activity, Gram neg. smooth J96 (E. coli J96): 0.1 10^−6 M; LD50 bactericidal activity, Gram neg. smooth H5 (E. coli H5): 0.71 10^−6 M; LD50 bactericidal activity, Gram neg. smooth IA2 (E. coli IA2): 0.06 10^−6 M; LD50 bactericidal activity, Gram-positive MN8 [3]: 0.25 10^−6 M; LD50 bactericidal activity, Gram-positive MNHO ([2]; Table 1, S. aureus MNHO): 0.16 10^−6 M; IC50 (E. coli 055:B5 LPS; [6]): 2 µM; IC50 (E. coli 055:B5 LPS; [5]): ~2 µM; bactericidal concentration range (bacteria; Mayo et al. 1998): ~10^−8 M
ANIKLSVQMKLF-NH2 [SC-1, ANIKLSVQMKLF]	around 70%					hemolysis (Human red blood cells; 1e-6 M): 15-30%
MKLFKRHLKWKIIV [SC-403, M K L F K R H L K W K I I V-NH2]		0.002 10^−6 M	0.05 10^−6 M	0.4 10^−6 M	6 µM	
KLKLLLLLKLK-NH2 [antibacterial peptide of the literature forming channels in bacterial membranes]						effective antibacterial concentration (bacteria; Alvarez-Bravo et al. 1995): 100 µM
K L F K X H L K W K I I-NH2 [SC-409]		0.001 10^−6 M	0.22 10^−6 M	0.3 10^−6 M	3 µM	LPS neutralization in words (E. coli 055:B5 LPS): nearly full activity
MKLFKRHLKWKI [SC-402, M K L F K R H L K W K I-NH2]		0.005 10^−6 M	0.07 10^−6 M	6 10^−6 M	25 µM	drop in LPS neutralizing activity relative to SC-4 (E. coli 055:B5 LPS): 12 fold; IC50 (E. coli 055:B5 LPS; [5]): 25 µM
KLSVQMKLFKRH-NH2 [SC-2, KLSVQMKLFKRH]	~15%					
VQMKLFKRHLKW-NH2 [SC-3, VQMKLFKRHLKW]	~10%					
KIIVKLNDGREL-NH2 [SC-7, KIIVKLNDGREL]	~15%					
X L F K R H L K W K I I-NH2 [SC-404]		0.004 10^−6 M	0.22 10^−6 M	1 10^−6 M	7 µM	drop in LPS neutralizing activity relative to SC-4 (E. coli 055:B5 LPS): about 3 fold
K L F K K H L K W K I I-NH2 [SC-408]		0.003 10^−6 M	0.07 10^−6 M	2 10^−6 M	1000 µM	LPS neutralization in words (E. coli 055:B5 LPS): does not affect LPS binding; drop in LPS neutralizing activity relative to SC-4 (E. coli 055:B5 LPS): about 500 fold
K L F X R H L K W K I I-NH2 [SC-405]		0.006 10^−6 M	0.17 10^−6 M	0.4 10^−6 M	7 µM	drop in LPS neutralizing activity relative to SC-4 (E. coli 055:B5 LPS): about 3 fold
K L F K R H L K W X I I-NH2 [SC-407]		0.007 10^−6 M	0.05 10^−6 M	1 10^−6 M	3 µM	LPS neutralization in words (E. coli 055:B5 LPS): essentially no affect
VKLNDGRELSLD-NH2 [SC-8, VKLNDGRELSLD]	~10%					
BG-22: peptide 28 mer having the amino acid sequence from the β-sheet domain of bactericidal/permeability increasing (B/PI) protein (residues 82–108) (NANIKISGKWKAQKRFLKMSGNFDLSI; UniProt P17213 113-139, looked up, fragment) [reference compound]						LD50 bactericidal activity, Gram neg. rough J5 (E. coli J5): 0.09 10^−6 M; LD50 bactericidal activity, Gram neg. smooth P.a. [1]: 0.05 10^−6 M; LD50 bactericidal activity, Gram neg. smooth J96 (E. coli J96): 0.52 10^−6 M; LD50 bactericidal activity, Gram neg. smooth H5 (E. coli H5): 0.71 10^−6 M; LD50 bactericidal activity, Gram neg. smooth IA2 (E. coli IA2): 0.32 10^−6 M; LD50 bactericidal activity, Gram-positive MN8 [3]: 0.5 10^−6 M; LD50 bactericidal activity, Gram-positive MNHO ([2]; Table 1, S. aureus MNHO): 0.63 10^−6 M; IC50 (E. coli 055:B5 LPS; [6]): 5 µM
